Several values for one entry are separate records, joined by “and”; a condition that tells them apart may be missing. Equal values may be shown once.
What was measured:
PCSK9 [1] = test: PCSK9 AlphaLisa Huh7 SP and CRC; type: cell-based
PCSK9 [2] = test: Basal_PCSK9 HepG2, primary SP and CRC (secreted PCSK9, ELISA); type: cell-based, human; details: for Primary SP Basal_PCSK9 HepG2 SP % Inhib @ 5 μM / Primary SP Basal_PCSK9 HepG2 SP % Inhib @ 50 μM / Primary SP Basal_PCSK9 HepG2 SP % Inhib @ 2 μM: HepG2, single point; for Primary SP Basal_PCSK9 HepG2 SP % Inhib @ 5 μM / accumulation of PCSK9 in culture media: 5 μM; for accumulation of PCSK9 in culture media: HepG2 cells, FIGS. 2A-2B; for IC50: HepG2, concentration response curve; for activity rating in words (PCSK9 inhibition, Table 2): summary of Table 2 data
Description: To study the effect of the compounds on PCSK9 secretion we used 1×10^6 HepG2 cells in 6-well culture plates, followed by incubation with media only, media+0.1% DMSO or Media+5 uM of 31/33/34/35 in 0.1% DMSO and collection of 50 ul of media at 8, 16, 24 and 40 hours or incubation with increasing concentration (0.2-50 μM) of 34 in 0.1% DMSO for 24 hours and collection of 50 ul of media. The collected media was analyzed for PCSK9 levels using commercially available ELISA kit (MBL-international, catalog # CY-8079) following the manufacturer instruction.
(§1) The below data (Table 2) was generated using the assays as discussed in Examples 1-2. Blanks mean no testing was performed. […] For the SP assays, the higher the number, the higher the inhibition, e.g., the better the activity of the compound. Compounds with a determined IC50 are particularly active, the IC50 values were determined via dose response curve (under the heading CRC which stands for concentration response curve aka dose response curve).

PCSK9 [3] = test: Secondary Basal_PCSK9 ELISA RPH; type: cell-based
Description: as §1

Structure (SMILES)	Primary SP PCSK9 AlphaLisa Huh7 SP % Inhib @ 10 μM (PCSK9 [1]; Huh7)	Primary SP Basal_PCSK9 HepG2 SP % Inhib @ 5 μM (PCSK9 [2])	further results
Cn1c2c(c3ccccc31)C1(CCCC1)C1C=CC2C1 (centres unmarked) [Compound 7]	−34.71%	–	–
CC1=C(C)CC2(CCCCC2)c2c(n(C)c3ccccc23)C1 [Compound 10]	–	11.61%	–
COC(=O)[C@@H]1CC[C@H](O)[C@@]2(C)c3ccccc3N(C)[C@@H]12 [Compound 49]	–	–	Primary SP Basal_PCSK9 HepG2 SP % Inhib @ 50 μM (PCSK9 [2]): −13.7% and −22.9%
Cc1ccc(C2CC(C)(C)c3c2[nH]c2ccccc32)cc1 (centres unmarked) [Compound 31]	–	26.2%	Secondary Basal_PCSK9 ELISA RPH % Inhib @ 100 μM (PCSK9 [3]): 19.03% and 22.14%; accumulation of PCSK9 in culture media (PCSK9 [2]): significantly reduced accumulation of PCSK9 in culture media in a time-dependent and concentration-dependent manner; Primary SP Basal_PCSK9 HepG2 SP % Inhib @ 50 μM (PCSK9 [2]): 87.5%; IC50 (PCSK9 [2]): 4.12 µM; activity rating in words (PCSK9 inhibition, Table 2) (PCSK9 [2]): particularly strongly active
CN1c2ccccc2[C@]2(Cc3ccccc3)Cc3ccccc3N[C@H]12 [Compound 57]	17.71%	–	–
CC1(C)c2c(n(Cc3ccccc3)c3ccccc23)C2C=CC1C2 (centres unmarked) [Compound 13]	–	18.09%	–
COc1ccc(C2CC3(CCCCC3)c3c2n(C)c2ccccc32)cc1 (centres unmarked) [Compound 20]	–	15.69%	–
CC1(C)c2c([nH]c3ccccc23)C2C=CC1C2 (centres unmarked) [Compound 14]	–	–	Primary SP Basal_PCSK9 HepG2 SP % Inhib @ 2 μM (PCSK9 [2]): 47.9%; IC50 (PCSK9 [2]): > 50 µM
C[C@@]12Cc3ccccc3N[C@@H]1N(Cc1ccccc1)c1ccccc12 [Compound 55]	−22.6%	–	–
CC1(C)c2c([nH]c3ccc(C(F)(F)F)cc23)C2C=CC1C2 (centres unmarked) [Compound 25]	−334%	–	–
Cc1ccc(C2CC3(CCCCC3)c3c2n(C)c2ccccc32)cc1 (centres unmarked) [Compound 21]	–	12.18%	–
Cn1c2c(c3ccccc31)C(c1ccccc1)C1C=CC2C1 (centres unmarked) [Compound 1]	–	–	Primary SP Basal_PCSK9 HepG2 SP % Inhib @ 2 μM (PCSK9 [2]): 0%
CC1C=CC(C)C(c2ccccc2)c2c1n(C)c1ccccc21 (centres unmarked) [Compound 12]	−261.1%	–	–
Cn1c2c(c3ccccc31)C(c1ccc(C(F)(F)F)cc1)C1C=CC2C1 (centres unmarked) [Compound 3]	–	−0.4577%	–
Cc1cccc2c1N[C@@H]1N(C)c3ccccc3[C@]1(C)C2 [Compound 58]	−2.718%	–	–
COC(=O)c1ccc2[nH]c3c(c2c1)C(C)(C)C1C=CC3C1 (centres unmarked) [Compound 15]	−117.8%	–	–
CC1(C)c2c([nH]c3ccc(Cl)cc23)C2C=CC1C2 (centres unmarked) [Compound 18]	–	21.64%	–
c1ccc(C2CC3(CCCCC3)c3c2[nH]c2ccccc32)cc1 (centres unmarked) [Compound 32]	–	8.8%	Primary SP Basal_PCSK9 HepG2 SP % Inhib @ 50 μM (PCSK9 [2]): 11.9%; activity rating in words (PCSK9 inhibition, Table 2) (PCSK9 [2]): weakly active
Cc1ccc(C2CC3(CCCCC3)c3c2[nH]c2ccccc32)cc1 (centres unmarked) [Compound 33]	–	18.9%	Secondary Basal_PCSK9 ELISA RPH % Inhib @ 20 μM (PCSK9 [3]; 20 μM): −4.143% and 2.541% and 3.284% and −5.595%; Secondary Basal_PCSK9 ELISA RPH % Inhib @ 100 μM (PCSK9 [3]): 25.95% and 29.77%; accumulation of PCSK9 in culture media (PCSK9 [2]): significantly reduced accumulation of PCSK9 in culture media in a time-dependent and concentration-dependent manner; Primary SP Basal_PCSK9 HepG2 SP % Inhib @ 50 μM (PCSK9 [2]): 53.4%; IC50 (PCSK9 [2]): 2.12 µM; activity rating in words (PCSK9 inhibition, Table 2) (PCSK9 [2]): particularly strongly active
CC1=CCc2c(c3ccccc3n2C)C(c2ccccc2)C1 (centres unmarked) [Compound 11]	–	38.95%	–
Cc1ccc(C2CC(C)(C)c3c2[nH]c2ccc(C)cc32)cc1 (centres unmarked) [Compound 36]	–	24.5%	Primary SP Basal_PCSK9 HepG2 SP % Inhib @ 50 μM (PCSK9 [2]): 96.5%; IC50 (PCSK9 [2]): 18.6 µM

Structure (SMILES)	Primary SP PCSK9 AlphaLisa Huh7 SP % Inhib @ 10 μM (PCSK9 [1]; Huh7)	Primary SP Basal_PCSK9 HepG2 SP % Inhib @ 5 μM (PCSK9 [2])	further results
CC1(C)C(=O)C[C@@]2(C)c3ccccc3N(Cc3ccccc3)[C@@]12C [Compound 53]	–	–	Primary SP Basal_PCSK9 HepG2 SP % Inhib @ 50 μM (PCSK9 [2]): −20.1% and −22.3%
C=CCc1ccc2c(c1)C[C@@]1(C)c3ccccc3N(C)[C@H]1N2 [Compound 61]	−16.91%	–	–
CC1(C)c2c([nH]c3ccc(I)cc23)C2C=CC1C2 (centres unmarked) [Compound 16]	–	9.989%	–
CN1c2ccccc2[C@]2(C)Cc3cc(Cl)ccc3N[C@H]12 [Compound 60]	9.09%	–	–
CN1c2ccc(Br)cc2[C@]2(C)Cc3ccccc3N[C@H]12 [Compound 62]	10.55% and 20.08%	–	–
Cc1ccc(C2CC3(CCCCC3)c3c2[nH]c2ccc(C)cc32)cc1 (centres unmarked) [Compound 35]	–	26.4%	accumulation of PCSK9 in culture media (PCSK9 [2]): significantly reduced accumulation of PCSK9 in culture media in a time-dependent and concentration-dependent manner; Primary SP Basal_PCSK9 HepG2 SP % Inhib @ 50 μM (PCSK9 [2]): 90%; IC50 (PCSK9 [2]): 3.14 µM; activity rating in words (PCSK9 inhibition, Table 2) (PCSK9 [2]): particularly strongly active
CN1c2ccccc2[C@]2(C)Cc3ccccc3N[C@H]12 [Compound 54]	−11.97%	–	–
Cn1c2c(c3ccccc31)C1(CCCCC1)C1C=CC2C1 (centres unmarked) [Compound 9]	–	21.92%	–
Cn1c2c(c3ccccc31)C(c1ccco1)C1C=CC2C1 (centres unmarked) [Compound 4]	–	11.69%	–
CC1(C)c2c([nH]c3ccc(O)cc23)C2C=CC1C2 (centres unmarked) [Compound 24]	–	4.997%	–
COc1ccc(C2c3c(n(C)c4ccccc34)C3C=CC2C3)cc1 (centres unmarked) [Compound 2]	–	39.51%	–
CC1(C)c2c([nH]c3ccc(F)cc23)C2C=CC1C2 (centres unmarked) [Compound 23]	−35.06%	–	–
CCC[C@@]12Cc3ccccc3N[C@@H]1N(C)c1ccccc12 [Compound 56]	32.56% and 23.45%	–	–
Cn1c2c(c3ccccc31)C1(CCCCC1)CC2c1ccc2ccccc2c1 (centres unmarked) [Compound 22]	–	77.2%	IC50 (PCSK9 [1]; Huh7, concentration response curve, read-out: Primary CRC PCSK9 AlphaLisa Huh7 CRC Rel IC50): > 40 µM
Cn1c2c(c3ccccc31)C(c1cccs1)C1C=CC2C1 (centres unmarked) [Compound 5]	–	30.55%	–
Cc1ccc2c(c1)C[C@@]1(C)c3ccccc3N(C)[C@H]1N2 [Compound 59]	–	–	Primary SP PCSK9 AlphaLisa Huh7 SP % Inhib @ 10.1 μM (PCSK9 [1]; 10.1 μM, Huh7): −5.307%
CCC1c2c(n(C)c3ccccc23)C2C=CC1C2 (centres unmarked) [Compound 6]	–	−5.193%	–
CC1(C)c2c([nH]c3ccc(Br)cc23)C2C=CC1C2 (centres unmarked) [Compound 17]	–	37.33%	–
Cn1c2c(c3ccccc31)C1(CCCCC1)CC2c1ccccc1 (centres unmarked) [Compound 19]	–	7.268%	–
Cn1c2c(c3ccccc31)C1(CCCCC1)C1C=CC2C1 (centres unmarked) [Compound 8]	−44.02%	–	–
